Assay results as given in ChEMBL document CHEMBL1201862, “PubChem BioAssay data set” (2004).
Activity calls are given as the source filed them.

Key:
Coagulation factor XII = biological target: T1, Coagulation factor XII (Homo sapiens, UniProt P00748); format: functional;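 note: activated factor XIIa alpha cleaving a fluorogenic AMC peptide substrate; inhibitor potency from loss of enzyme activity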
T1 sequence (P00748 whole entry): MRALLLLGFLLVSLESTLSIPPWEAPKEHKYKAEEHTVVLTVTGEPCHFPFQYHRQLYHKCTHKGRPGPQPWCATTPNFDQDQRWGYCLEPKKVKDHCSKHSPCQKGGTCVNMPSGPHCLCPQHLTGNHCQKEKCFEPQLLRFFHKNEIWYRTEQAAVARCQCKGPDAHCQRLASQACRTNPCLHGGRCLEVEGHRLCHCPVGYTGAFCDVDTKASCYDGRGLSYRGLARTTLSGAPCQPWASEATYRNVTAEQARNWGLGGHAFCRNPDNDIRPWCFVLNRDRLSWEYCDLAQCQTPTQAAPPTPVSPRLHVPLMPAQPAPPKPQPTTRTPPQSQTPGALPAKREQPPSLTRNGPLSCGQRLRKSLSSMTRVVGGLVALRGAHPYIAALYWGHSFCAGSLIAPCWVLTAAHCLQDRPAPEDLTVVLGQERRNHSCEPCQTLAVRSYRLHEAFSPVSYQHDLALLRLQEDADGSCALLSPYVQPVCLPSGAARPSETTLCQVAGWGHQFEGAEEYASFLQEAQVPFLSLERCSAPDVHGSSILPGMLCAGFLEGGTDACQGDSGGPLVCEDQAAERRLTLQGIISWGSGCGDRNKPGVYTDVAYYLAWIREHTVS

[1] = biological target: T2, Methionyl-tRNA synthetase, putative (Trypanosoma brucei brucei, UniProt Q38C91); format: functional, Trypanosoma brucei brucei strain 927/4 GUTat10.1
T2 sequence (Q38C91 whole entry): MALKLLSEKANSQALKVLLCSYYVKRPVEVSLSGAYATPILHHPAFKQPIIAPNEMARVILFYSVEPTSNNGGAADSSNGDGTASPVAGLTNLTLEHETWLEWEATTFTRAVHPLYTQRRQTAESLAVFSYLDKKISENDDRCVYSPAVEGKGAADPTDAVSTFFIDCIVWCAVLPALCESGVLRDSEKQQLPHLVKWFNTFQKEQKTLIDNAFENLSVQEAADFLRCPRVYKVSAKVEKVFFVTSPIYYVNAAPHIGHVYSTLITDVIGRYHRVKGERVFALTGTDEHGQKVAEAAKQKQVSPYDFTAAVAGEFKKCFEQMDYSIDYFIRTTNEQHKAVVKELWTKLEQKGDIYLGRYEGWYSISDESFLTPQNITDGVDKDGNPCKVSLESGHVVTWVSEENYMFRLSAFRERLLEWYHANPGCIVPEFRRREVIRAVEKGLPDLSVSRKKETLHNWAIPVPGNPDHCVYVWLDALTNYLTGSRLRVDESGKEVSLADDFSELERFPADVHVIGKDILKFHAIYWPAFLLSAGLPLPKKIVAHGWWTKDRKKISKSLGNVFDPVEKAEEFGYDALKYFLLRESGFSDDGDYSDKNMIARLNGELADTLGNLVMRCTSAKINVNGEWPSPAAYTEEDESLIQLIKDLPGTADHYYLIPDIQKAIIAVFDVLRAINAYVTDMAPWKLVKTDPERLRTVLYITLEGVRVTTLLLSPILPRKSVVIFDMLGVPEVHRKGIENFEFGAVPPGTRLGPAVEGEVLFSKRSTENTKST

[2] = Counterscreen for inhibitors of Trypanosoma brucei methionyl tRNA synthetase (MetRS): Luminescence-based cell-based high throughput dose response assay to identify compounds that are cytotoxic to Jurkat human T lymphocyte cells.; format: functional
[3] = biological target: T3, Heat shock factor protein 1 (Mus musculus, UniProt P38532); assay: HSF1 potentiators in luciferase reporter cells, confirmation, cell-based, NIH3T3, luminescence, dose retest (AID 435004); format: functional;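 note: stress induced by proteasome inhibitor MG132 added 30 min after compound; luciferase reporter driven by HSF1 response element in NIH3T3 cells; actives raise luminescence as potentiators of the MG132 stress response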
T3 sequence (P38532 whole entry): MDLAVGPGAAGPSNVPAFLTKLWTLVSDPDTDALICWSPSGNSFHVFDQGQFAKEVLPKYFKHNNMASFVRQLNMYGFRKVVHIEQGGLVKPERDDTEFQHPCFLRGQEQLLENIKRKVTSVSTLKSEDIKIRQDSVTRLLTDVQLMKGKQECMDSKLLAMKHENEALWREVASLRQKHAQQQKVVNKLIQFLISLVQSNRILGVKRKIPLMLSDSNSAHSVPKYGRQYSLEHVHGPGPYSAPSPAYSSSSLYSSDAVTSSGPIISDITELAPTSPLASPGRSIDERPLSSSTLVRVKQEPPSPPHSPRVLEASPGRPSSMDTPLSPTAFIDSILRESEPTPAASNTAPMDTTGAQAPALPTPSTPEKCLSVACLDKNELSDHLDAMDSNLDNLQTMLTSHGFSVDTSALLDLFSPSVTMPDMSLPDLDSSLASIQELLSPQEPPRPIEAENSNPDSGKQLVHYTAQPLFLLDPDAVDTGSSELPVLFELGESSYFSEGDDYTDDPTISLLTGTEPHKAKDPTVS

[4] = biological target: T2, Methionyl-tRNA synthetase, putative; format: functional, Trypanosoma brucei brucei strain 927/4 GUTat10.1; remark: listed apart in the source
[5] = biological target: Dual specificity tyrosine-phosphorylation-regulated kinase 1A (Rattus norvegicus, UniProt Q63470); format: biochemical, Homo sapiens
SUMO-activating enzyme [6] = biological target: T4, SUMO-activating enzyme (Homo sapiens, UniProt Q9UBT2); assay: inhibitors of in vitro SUMOylation cascade, primary screen, biochemical, HTRF, uHTS (AID 2006); format: protein-complex assay
SUMO-activating enzyme [7] = biological target: T4, SUMO-activating enzyme; assay: SUMOylation inhibitor hit validation, confirmation, SUMOylation inhibitor project, biochemical, AlphaScreen (AID 2018); format: functional
[8] = biological target: Peroxisome proliferator-activated receptor gamma/Nuclear receptor coactivator 1 (Homo sapiens, UniProt P37231); assay: (§1) TR-FRET dose response biochemical High Throughput Screening assay for agonists of the steroid receptor coactivator 1 (SRC-1) recruitment by the peroxisome proliferator-activated receptor gamma (PPAR gamma): non-selective agonists. [Related pubchem assays (depositor defined):AID1300, AID1808, AID504735, AID631]; format: protein assay
Fatty acid synthase [9] = biological target: T5, Fatty acid synthase (Homo sapiens, UniProt P49327); assay: FAS thioesterase domain inhibitors, dose response, biochemical, kinetic fluorescence intensity (AID 624326); format: functional;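 note: rate of fluorescence rise from hydrolysis of a fluorogenic O-methyl fluorescein ester substrate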
[10] = biological target: T6, Short transient receptor potential channel 4 (Mus musculus, UniProt Q9QUQ5); assay: mouse TRPC4 channel inhibitors, dose response, cell-based, HEK293 TRPC4/mu-opioid, Fluo-4 calcium (AID 434942); format: functional;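 note: potency of inhibitors blocking the TRPC4 calcium response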
T6 sequence (Q9QUQ5 whole entry): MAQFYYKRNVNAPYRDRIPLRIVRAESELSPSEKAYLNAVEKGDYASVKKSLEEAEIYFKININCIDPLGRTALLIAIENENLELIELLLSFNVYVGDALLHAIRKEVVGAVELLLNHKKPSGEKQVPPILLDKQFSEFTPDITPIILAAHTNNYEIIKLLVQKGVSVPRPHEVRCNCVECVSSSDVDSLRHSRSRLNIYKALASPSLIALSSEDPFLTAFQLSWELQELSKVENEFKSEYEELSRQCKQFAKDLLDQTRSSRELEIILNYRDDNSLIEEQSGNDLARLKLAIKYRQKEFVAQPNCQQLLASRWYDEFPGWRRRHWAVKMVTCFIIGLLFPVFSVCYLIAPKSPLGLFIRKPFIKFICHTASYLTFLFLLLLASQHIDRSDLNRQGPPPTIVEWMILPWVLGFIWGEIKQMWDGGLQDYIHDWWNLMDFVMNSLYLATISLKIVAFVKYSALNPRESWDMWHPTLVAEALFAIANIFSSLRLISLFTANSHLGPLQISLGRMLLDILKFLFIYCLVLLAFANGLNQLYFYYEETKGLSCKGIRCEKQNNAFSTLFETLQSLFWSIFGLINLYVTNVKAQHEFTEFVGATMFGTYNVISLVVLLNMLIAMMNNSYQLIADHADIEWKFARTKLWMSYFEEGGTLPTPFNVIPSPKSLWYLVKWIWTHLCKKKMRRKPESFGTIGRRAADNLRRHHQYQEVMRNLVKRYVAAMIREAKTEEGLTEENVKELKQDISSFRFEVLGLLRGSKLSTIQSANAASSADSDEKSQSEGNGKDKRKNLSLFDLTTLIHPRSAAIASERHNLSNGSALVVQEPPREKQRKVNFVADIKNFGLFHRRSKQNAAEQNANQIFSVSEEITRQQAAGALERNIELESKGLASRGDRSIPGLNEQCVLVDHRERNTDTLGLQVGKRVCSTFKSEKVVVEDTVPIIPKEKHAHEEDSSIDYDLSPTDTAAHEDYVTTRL

[11] = biological target: Peroxisome proliferator-activated receptor gamma/Nuclear receptor coactivator 3 (Homo sapiens, UniProt P37231); assay: as §1, with “3 (SRC-3)” for “1 (SRC-1)”, “assays: 1301 (Confirmation screen.), 1048 (Primary screen.)]” for “assays (depositor defined):AID1300, AID1808, AID504735, AID631]”; format: functional
Major prion protein = Major prion protein (Homo sapiens, UniProt P04156); format: functional, cell-based
[12] = biological target: Peroxisome proliferator-activated receptor gamma/Nuclear receptor coactivator 2 (Homo sapiens, UniProt P37231); assay: TR-FRET dose response biochemical High Throughput Screening assay for agonists of the steroid receptor coactivator 2 (SRC-2) recruitment by the peroxisome proliferator-activated receptor gamma (PPAR gamma): non-selective agonists. [Related pubchem assays: 1297, 1032 ]; format: functional
Fatty acid synthase [13] = biological target: T5, Fatty acid synthase; assay: FAS thioesterase domain inhibitors, dose response, biochemical, endpoint fluorescence intensity, uHTS hits (AID 624327); format: functional;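 note: fluorescence from hydrolysis of an O-methyl fluorescein acyl ester substrate by the enzyme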
HEK293 [14] = assay: NOD1 signaling inhibitors, primary screen, cell-based, luminescence, uHTS (AID 1578); format: functional; conditions: Homo sapiens
HEK293 [15] = assay: NOD2 signaling inhibitors in MDP-stimulated cells, cell-based, uHTS, luminescence (AID 2001); format: functional; conditions: Homo sapiens
HEK293 [16] = assay: cells; format: functional, cell-based; conditions: Homo sapiens
HEK293 [17] = assay: cells; format: functional, cell-based; conditions: Homo sapiens; remark: listed apart in the source
[18] = biological target: Photoreceptor-specific nuclear receptor (Homo sapiens, UniProt Q9Y5X4); format: functional, cell-based;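 note: CHO-S cells with Gal4-NCOR and VP16-NR2E3 two-hybrid luciferase reporter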
[19] = biological target: Glucose-6-phosphate 1-dehydrogenase (Homo sapiens, UniProt P11413); assay: human G6PD enzyme inhibitors, dose response, selectivity assay for P. falciparum G6PD inhibitor project, biochemical, fluorescence (AID 504792); format: functional
[20] = biological target: T7, Adenosylmethionine-8-amino-7-oxononanoate aminotransferase (Mycobacterium tuberculosis, UniProt P9WQ81); assay: Mycobacterium tuberculosis BioA enzyme inhibitor Measured in Biochemical System Using Plate Reader - 2163-02_Inhibitor_Dose_CherryPick_Activity.; format: functional, Mycobacterium tuberculosis UT205
T7 sequence (P9WQ81 whole entry): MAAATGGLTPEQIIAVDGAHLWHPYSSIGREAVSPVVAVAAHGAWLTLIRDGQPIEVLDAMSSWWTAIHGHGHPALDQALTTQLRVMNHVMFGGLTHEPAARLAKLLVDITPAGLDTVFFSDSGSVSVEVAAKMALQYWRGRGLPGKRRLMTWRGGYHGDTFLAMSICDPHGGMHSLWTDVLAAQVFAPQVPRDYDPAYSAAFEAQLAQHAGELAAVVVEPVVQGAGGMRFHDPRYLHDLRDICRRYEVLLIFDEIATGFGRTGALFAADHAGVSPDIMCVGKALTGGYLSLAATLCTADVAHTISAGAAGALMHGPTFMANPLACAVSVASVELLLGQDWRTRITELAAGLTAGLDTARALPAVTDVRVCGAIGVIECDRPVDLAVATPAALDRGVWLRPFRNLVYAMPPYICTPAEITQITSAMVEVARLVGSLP

O=C(NNc1c(Cl)cc(Cl)cc1Cl)c1nnc(O)c2ccccc12
IC50 (Coagulation factor XII): > 50 µM (inactive)

CCOC(=O)c1cccc(NC(=O)Cn2c(CC(=O)NC)nc3ccccc32)c1
IC50 [1]: 6.01 µM (active) | IC50 [2]: 83.3 µM (inactive) | EC50 [3]: > 260 µM (inactive) | IC50 [4]: 2.05 µM (active)

O=C1N=C(NS(=O)(=O)Cc2ccccc2)S/C1=C/c1ccc2c(c1)OCO2
AC50 [5]: 2.56 µM (active)

N#Cc1c(-c2cccs2)nc(SCc2ccc(Cl)cc2)[nH]c1=O
IC50 (SUMO-activating enzyme [6]): 18 µM (active) | IC50 (SUMO-activating enzyme [7]): 9.93 µM (active) | EC50 [8]: > 79.4 µM (inactive) | IC50 (Fatty acid synthase [9]): 5.61 µM (active) | EC50 [10]: 4.22 µM (active) | EC50 [11]: > 79.4 µM (not active) | IC50 (Major prion protein): 1.05 µM (active) | EC50 [12]: > 79.4 µM (not active) | IC50 (Fatty acid synthase [13]): 6.44 µM (active)

N#Cc1c(O)nc(SCc2ccc(Cl)cc2)nc1-c1cccs1
IC50 (cells): > 138 µM (inactive) | EC50 (HEK293 [14]): 4.58 µM (active) | IC50 (HEK293 [15]): 6.99 µM (inactive) | IC50 (HEK293 [16]): 11.5 µM (active) | IC50 (HEK293 [17]): 18.9 µM (active)

COc1ccc(S(=O)(=O)N2CCCCC2)cc1N=C(S)Nc1cccc(Cl)c1C
IC50 [18]: 0.962 µM (active)

CCC(NC(=O)c1ccc2nc(Cc3ccc(OC)cc3)oc2c1)c1ccncc1 (stereo not given)
EC50 (HEK293 [14]): 4.58 µM (active) | IC50 (HEK293 [15]): 12.5 µM (inactive) | IC50 (HEK293 [16]): 8.15 µM (active) | IC50 (HEK293 [17]): 16.5 µM (active)

CN(c1ccccc1)S(=O)(=O)c1ccc(NC(=S)NC(=O)c2ccccc2)cc1
IC50 (Coagulation factor XII): > 50 µM (inactive)

Cc1cccc(NC(=O)CSCc2c(C)noc2C)c1C
IC50 (Coagulation factor XII): > 50 µM (inactive)

CC(C)C(NC(=O)CC12CC3CC(CC(C3)C1)C2)C(=O)O (stereo not given)
IC50 (Coagulation factor XII): > 50 µM (inactive)

CCN(CC)CCn1c2ccccc2c(=O)c2c(O)ccc(O)c21
IC50 [19]: 64.6 µM (inactive) | AC50 [5]: 3.16 µM (active)

CCC1(OC(=O)CN(C)C)C(=O)OCc2c1cc1n(c2=O)Cc2cc3c(N)cccc3nc2-1 (stereo not given)
IC50 [18]: 2.92 µM (active)

O=C(c1ccccc1F)N1CC[C@@H]2[C@H]1c1cc(Br)ccc1N[C@@H]2CO
AC50 [20]: 1.53 µM (active)

O=C(C[C@H]1C[C@@H]2c3cc(NC(=O)c4cccnc4)ccc3O[C@@H]2[C@@H](CO)O1)NCC(F)(F)F
AC50 [20]: 16.8 µM (active)

CCN1[C@H](C(=O)NCc2ccccc2)[C@@H](CO)[C@@H]2Cn3c(ccc(-c4cccnc4)c3=O)[C@@H]21
AC50 [20]: 13.2 µM (active)

CC(=O)Oc1ccc2c(c1)C(=O)c1ccccc1C2=O
AC50 [5]: 36.2 µM (active)
